# In patent publication US20150377888A1, “Methods for Predicting and Preventing Metastasis in Triple Negative Breast Cancers” (INSERM (INSTITUT NATIONAL DE LA SANTÉ ET DE LA RECHERCHE …, priority 2013, published 2015):
# T1: Nox-2 (human, UniProt P04839 2-570)
# T1 sequence (looked up): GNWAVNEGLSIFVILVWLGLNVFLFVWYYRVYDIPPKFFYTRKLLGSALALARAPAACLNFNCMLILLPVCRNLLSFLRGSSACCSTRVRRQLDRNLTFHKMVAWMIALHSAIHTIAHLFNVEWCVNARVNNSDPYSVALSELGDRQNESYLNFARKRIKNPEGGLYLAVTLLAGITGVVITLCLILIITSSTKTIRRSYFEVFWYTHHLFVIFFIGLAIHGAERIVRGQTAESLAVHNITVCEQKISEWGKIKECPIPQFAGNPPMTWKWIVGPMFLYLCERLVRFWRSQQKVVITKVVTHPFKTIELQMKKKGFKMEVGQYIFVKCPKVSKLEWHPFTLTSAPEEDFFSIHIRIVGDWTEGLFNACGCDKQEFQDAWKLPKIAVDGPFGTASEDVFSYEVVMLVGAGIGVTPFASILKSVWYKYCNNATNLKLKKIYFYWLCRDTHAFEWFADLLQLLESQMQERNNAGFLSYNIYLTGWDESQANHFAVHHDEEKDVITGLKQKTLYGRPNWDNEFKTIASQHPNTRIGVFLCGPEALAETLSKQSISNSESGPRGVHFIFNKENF
# T2: Nox-4 (human, UniProt Q9NPH5 1-578, limits assumed)
# T2 sequence (looked up): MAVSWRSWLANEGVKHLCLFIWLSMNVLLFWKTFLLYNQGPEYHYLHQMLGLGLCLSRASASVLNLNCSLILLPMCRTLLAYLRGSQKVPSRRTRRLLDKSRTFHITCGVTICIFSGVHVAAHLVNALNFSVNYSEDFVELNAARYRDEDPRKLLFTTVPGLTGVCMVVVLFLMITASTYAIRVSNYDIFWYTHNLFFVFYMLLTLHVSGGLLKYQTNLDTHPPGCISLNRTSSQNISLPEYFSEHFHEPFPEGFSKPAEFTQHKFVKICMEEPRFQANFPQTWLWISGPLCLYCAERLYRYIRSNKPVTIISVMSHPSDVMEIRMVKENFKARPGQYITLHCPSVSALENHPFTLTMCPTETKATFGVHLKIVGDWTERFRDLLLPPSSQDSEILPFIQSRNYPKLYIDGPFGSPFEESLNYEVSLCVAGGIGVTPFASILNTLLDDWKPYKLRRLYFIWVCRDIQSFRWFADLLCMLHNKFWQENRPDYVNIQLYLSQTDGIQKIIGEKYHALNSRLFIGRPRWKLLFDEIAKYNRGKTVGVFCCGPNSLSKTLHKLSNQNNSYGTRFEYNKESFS
# T3: Nox-1 (human, UniProt Q9Y5S8 1-564, limits assumed)
# T3 sequence (looked up): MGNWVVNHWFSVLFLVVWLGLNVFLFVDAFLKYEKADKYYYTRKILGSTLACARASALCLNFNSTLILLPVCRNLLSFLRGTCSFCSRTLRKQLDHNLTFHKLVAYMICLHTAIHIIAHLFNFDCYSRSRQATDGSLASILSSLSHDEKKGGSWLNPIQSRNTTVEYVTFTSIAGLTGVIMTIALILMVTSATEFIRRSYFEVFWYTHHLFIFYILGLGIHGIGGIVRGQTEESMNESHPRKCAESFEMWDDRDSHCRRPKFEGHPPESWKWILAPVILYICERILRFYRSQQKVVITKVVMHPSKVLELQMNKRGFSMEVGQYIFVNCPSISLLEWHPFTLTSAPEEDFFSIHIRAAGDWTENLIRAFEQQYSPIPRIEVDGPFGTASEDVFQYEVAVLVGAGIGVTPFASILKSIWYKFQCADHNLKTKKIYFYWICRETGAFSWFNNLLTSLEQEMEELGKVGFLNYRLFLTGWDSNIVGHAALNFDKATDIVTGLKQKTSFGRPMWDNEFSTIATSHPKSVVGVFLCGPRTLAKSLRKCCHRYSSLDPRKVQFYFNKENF
# B1: CD95 (receptor)
# chain: QVTDINSKGLELRKTVTTVETQNLEGLHHDGQFCHKPCPPGERKARDCTVNGDEPDCVPCQEGKEYTDKAHFSSKCRRCRLCDEGHGLEVEINCTRTQNTKCRCKPNFFCNSTVCEHCDPCTKCEHGIIKECTLTSNTKCKEEGSRSNLGWLCLLLLPIPLIVWVKRKEVQKTCRKHRKENQGSHESPTLNPETVAINLSDVDLSKYITTIAGVMTLSQVKGFVRKNGVNEAKIDEIKNDNVQDTAEQKVQLLRNWHQLHGKKEAYDTLIKDLKKANLCTLAEKIQTIILKDITSDSENSNFRNEIQSLV
# notes: also called Fas; FasR
# Tests used:
# [1] = tested on: TNBC breast cancer cell lines (Hs578T, MDA-MB-231 and MDA-MB-468); experiment: In vitro motility assay (Boyden chambers); format: cell-based, human; conditions: cells pre-treated with the agent (inhibitors at non-cytotoxic amounts), exposed to cl-CD95L
# Protocol: Boyden chambers (Millipore, Molsheim, France) containing 8 μm pore membranes were cultured in 24-well plates. After hydration of the membranes, 10^5 cells were added to the top chamber in low serum (1%)-containing medium. […] Cells were cultured for 24 h at 37° C. in a 5% CO2 humidified incubator. To quantify invasion, cells were fixed with methanol and stained with Giemsa. Stained cells were then removed from the top side of the membrane using a cotton-tipped swab and five representative pictures for each insert were taken of the invading cells from the reverse side. For each experiment, cells were lysed and absorbance at 560 nm was measured.
# [2] = tested on: PI3K; experiment: Immunoblot of Akt phosphorylation at Ser473 (hallmark of PI3K activation) in cells exposed to cl-CD95L; format: cell-based, human; conditions: for effect on CD95-mediated PI3K activation (phosphorylation of Akt at serine 473): breast cancer / TNBC cells exposed to cl-CD95L; for effect on CD95-mediated activation of Aid: pre-treatment of mammary cancer cells, non-cytotoxic amounts
# Protocol: (§1) Cells were lysed for 30 min at 4° C. in lysis buffer [25 mM HEPES (pH 7.4), 1% v/v Triton X-100, 150 mM NaCl, and 2 mM EGTA supplemented with a mix of protease inhibitors (Sigma-Aldrich)]. Protein concentration was determined by the bicinchoninic acid method (PIERCE, Rockford, Ill., USA) according to the manufacturer's protocol. Proteins were separated by SDS-PAGE and transferred to a nitrocellulose membrane (GE Healthcare, Buckinghamshire, England). […] The proteins were visualized with the enhanced chemiluminescence substrate kit (ECL, GE Healthcare).
# [3] = tested on: CD95-mediated Ca2+ response; experiment: Ca2+ monitoring: CD95-mediated Ca2+ response; format: cell-based, human; conditions: TNBC cells exposed to cl-CD95L
# Protocol: For experiments on parent cell lines, breast cancer cells were loaded with Fura2-PE3-AM (1 μM) at room temperature for 30 min in Hank's Balanced Salt Solution (HBSS). After washing with HBSS, the cells were incubated for 15 min in the absence of Fura2-AM to complete de-esterification of the dye. Cells were placed in the temperature controlled chamber (37° C.) of an inverted epifluorescence microscope (Olympus IX70) equipped with an ×40 UApo/340-1.15 W water-immersion objective (Olympus), and fluorescence micrograph images were captured at 510 nm and 12-bit resolution by a fast-scan camera (CoolSNAP fx Monochrome, Photometrics). To minimize UV light exposure, a 4×4 binning function was used. […]
# For experiments on GFP-expressing cell lines, Fluo8-AM was used, instead of Fura2-PE3-AM for experiments with GFP-expressing cells (infected with shRNA-expressing lentivirus), because GFP fluorescence disturbs Ca^2+ measurement with Fura2-PE3. Efficiently transduced cells (GFP expressing cells) were located by their emission of fluorescence at 530±30 nm for a light excitation at 485±22 nm. Ca^2+ changes were evaluated by exciting Fluo8-AM-loaded cells at […]. The values of the emitted fluorescence (605±50 nm) for each cell (F) were normalized to the starting fluorescence (F0) and reported as F/F0 (relative Ca^2+[CYT]). […]
# [4] = tested on: EGFR; experiment: Ca2+ monitoring: EGF-induced Ca2+ response; format: cell-based, human; conditions: TNBC cells (MDA-MB-231) in presence of EGF
# Protocol: For experiments on parent cell lines, breast cancer cells were loaded with Fura2-PE3-AM (1 μM) at room temperature for 30 min in Hank's Balanced Salt Solution (HBSS). […] To minimize UV light exposure, a 4×4 binning function was used. Fura2-AM was alternately excited at 340 and 380 nm, and the ratios of the resulting images (excitations at 340 and 380 nm and emission filter at 520 nm) were produced at constant intervals (10 seconds). […] Fratio reflects the intracellular Ca^2+ concentration changes. Each experiment was repeated 3 times, and for each experimental condition, the average of more than 20 single-cell traces was used.
# [5] = tested on: NADPHox; experiment: Flow cytometry analysis of intracellular ROS (H2FDA); format: cell-based, human; conditions: pre-treatment with NADPHox inhibitor
# Protocol: Cells were pre-incubated for 30 min at 37° C. with 3 μM of H2FDA resuspended in PBS. The cells were then pre-incubated for an additional 30 min with or without ROS inhibitors before stimulation with 100 ng/ml cl-CD95L for the indicated times. Cells were then washed and analyzed by FACScalibur (BD Bioscience).
# [6] = tested on: c-yes; experiment: c-yes activation status (auto-phosphorylation at Tyrosine 426); format: cell-based, human; conditions: pre-treatment of mammary cancer cells, non-cytotoxic amounts
# Protocol: as §1
# [7] = target: CD95 (human) (UniProt P25445); experiment: cell-based or functional assay
# [8] = target: T1, Nox-2; experiment: co-immunoprecipitation of CD95 (MISC) from MDA-MB-231 cells stimulated with cl-CD95L
# Protocol: (§2) The cells were then lysed, 1 μg of Apo1-3 was added to the cell lysate and CD95 was immunoprecipitated by the addition of protein A-sepharose beads (Sigma-Aldrich). […] After extensive washing, the immune complex was resolved by SDS-PAGE.
# [9] = target: T2, Nox-4; experiment: as above
# Protocol: as §2
# [10] = target: T3, Nox-1; experiment: as above
# Protocol: as §2
molecule,measurement,setting,value
Cc1nnsc1C(=O)Nc1ccc(-n2nc(C(F)(F)F)cc2C(F)(F)F)cc1 [BTP2],effect on migration of TNBC cells exposed to cl-CD95L,[1],inhibited
same,effect on CD95-mediated PI3K activation (phosphorylation of Akt at serine 473),[2],inhibited
C#Cc1cccc(Nc2ncnc3cc(OCCOC)c(OCCOC)cc23)c1 [erlotinib],effect on migration of TNBC cells exposed to cl-CD95L,[1],abolished
same,effect on CD95-mediated PI3K activation (phosphorylation of Akt at serine 473),[2],prevented
same,effect on CD95-mediated Ca2+ response,[3],neither treatment with erlotinib nor EGFR silencing altered
same,effect on CD95-mediated Ca2+ response,[3]; listed as Erlotinib,do not alter
same,effect on EGF-induced Ca2+ response,[4],blocked
same,effect on EGF-induced Ca2+ response,[4]; listed as Erlotinib,abolished
"c1ccc2c(c1)[I+]c1ccccc1-2 [DPI, diphenyleneiodonium chloride]",effect on migration of TNBC cells exposed to cl-CD95L,[1],inhibited cell migration
same,effect on CD95-mediated activation of Aid,[2],impaired
same,effect on cl-CD95L-induced increase in intracellular ROS,[5],blocked
same,effect on CD95-mediated activation of c-yes,[6],impaired
COc1cc(C(C)=O)ccc1O [apocynin],effect on migration of TNBC cells exposed to cl-CD95L,[1],inhibited cell migration
same,effect on CD95-mediated activation of Aid,[2],impaired
same,effect on cl-CD95L-induced increase in intracellular ROS,[5],blocked
same,effect on CD95-mediated activation of c-yes,[6],impaired
metalloprotease-cleaved CD95L (from UniProt P48023 130-281) (ligand),cell migration (Boyden chamber) of TNBC cells,[7],100 pg/mL
"CC(=O)OCOC(=O)CN(CC(=O)OCOC(C)=O)c1ccccc1OCCOc1ccccc1N(CC(=O)OCOC(C)=O)CC(=O)OCOC(C)=O [BAPTA-AM, 1,2-bis-(o-Aminophenoxy)ethane-N,N,N′,N′-tetraacetic Acid Tetra-(acetoxymethyl) Ester]",effect on migration of TNBC cells exposed to cl-CD95L,[1],inhibited
same,effect on CD95-mediated PI3K activation (phosphorylation of Akt at serine 473),[2],inhibited
B1,binding result,[8],no binding
same,binding result,[9],no binding
same,binding result,[10],no binding
